Data taken from ChEMBL document CHEMBL4616674, “Fragment-based Differential Targeting of PPI Stabilizer Interfaces” (J Med Chem, 2020).
Active and inactive are the calls of the source. The calls are words filed in the database; no cut-off is given here.

Tests used:
[1] = target: T1, 14-3-3 protein sigma (Homo sapiens) (UniProt P31947); assay: Binding affinity to 6x-His tagged 14-3-3-sigma (unknown origin) expressed in Escherichia coli BL21 (DE3) in presence of acetylated p53pT387 peptide by crystallography
T1 sequence (whole entry): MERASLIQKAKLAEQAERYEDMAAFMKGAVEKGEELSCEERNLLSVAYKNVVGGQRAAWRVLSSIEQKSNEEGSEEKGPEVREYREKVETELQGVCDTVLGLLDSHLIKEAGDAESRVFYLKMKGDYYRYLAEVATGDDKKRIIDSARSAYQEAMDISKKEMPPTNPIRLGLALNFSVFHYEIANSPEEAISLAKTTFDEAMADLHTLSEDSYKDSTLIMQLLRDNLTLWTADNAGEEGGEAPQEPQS

[2] = target: T1, 14-3-3 protein sigma (Homo sapiens); assay: Binding affinity to 6x-His tagged 14-3-3-sigma (unknown origin) expressed in Escherichia coli at 1 mM by fluorescence polarization assay
[3] = target: T1, 14-3-3 protein sigma (Homo sapiens); assay: Binding affinity to 6x-His tagged 14-3-3-sigma (unknown origin) expressed in Escherichia coli BL21 (DE3) at 500 uM in presence of p53pT387 peptide by WaterLOGSY NMR spectroscopy
[4] = target: T1, 14-3-3 protein sigma (Homo sapiens); assay: Binding affinity to 15N2H labeled and 6x-His tagged 14-3-3-sigma (unknown origin) expressed in Escherichia coli assessed as induction of broadening (intensity decrease) and chemical shift value perturbation at 2000 uM in presence of p53pT387 peptide by 1H-15N TROSY-HSQC NMR spectroscopy
[5] = target: T1, 14-3-3 protein sigma (Homo sapiens); assay: Binding affinity to 15N2H labeled and 6x-His tagged 14-3-3-sigma (unknown origin) expressed in Escherichia coli assessed as induction of broadening (intensity decrease) and chemical shift value perturbation at 2000 uM in absence of p53pT387 peptide by 1H-15N TROSY-HSQC NMR spectroscopy
[6] = target: T1, 14-3-3 protein sigma (Homo sapiens); assay: Binding affinity to 6x-His tagged 14-3-3-sigma (unknown origin) expressed in Escherichia coli at 1 mM by SPR assay

## CC(CN)Nc1cccc2cc(C(=N)N)sc12 (stereo not drawn)
[1]
  Activity: Active

## N=C(N)c1cc(-c2ccccc2)c(-c2c[nH]cn2)s1
[1]
  Activity: Active

## CC(CN)Nc1cc(CS)cc2sc(C(=N)N)cc12 (stereo not drawn)
[1]
  Activity: Active

## CC(C)Oc1ccc(C(=O)NCCN)c2cc(C(=N)N)sc12
[2]
  Activity: Active
[3]
  Activity: Active
[4]
  Activity: Active
[5]
  Activity: Active
[6]
  Activity: Active
